From article PMC5986654, “Combined HAT/EZH2 modulation leads to cancer-selective cell death” (Oncotarget, 2018) come the findings set out here.

One data set addresses KAT5 (Homo sapiens, UniProt Q92993). The data set is described as follows: HAT in vitro assay, 10-dose IC50, KAT5. It counts as biochemical. The note with it: substrate Histone H2A, 3 μM Acetyl-CoA; read-out: Compound IC50 KAT5. The procedure:
For HAT in vitro assay, MC2884 activity was also tested in vitro and IC50 was calculated as indicated in the scheme. […] Reactions were carried out at 3 μM Acetyl-CoA. Empty cells indicate no inhibition or compound activity that could not be fit to an IC50 curve.

The target in another data set is p300 (Homo sapiens, UniProt Q09472). The data set is described as follows: HAT in vitro assay, 10-dose IC50, p300. It counts as biochemical. As to conditions: substrate Histone H3, 3 μM Acetyl-CoA; read-out: Compound IC50 p300.
For another data set, the target named is HDAC1 (Homo sapiens, UniProt Q13547). Briefly: HDAC1 in vitro assay. Type of data set: biochemical. The protocol: The HDAC1 and SIRT1 assays were performed as described previously.
The nature of data set [1]: Body weight of leukemia-xenografted mice. Type of data set: in vivo. As to conditions: 1 mg/kg i.p. three times weekly, 16 days post-xenograft; control mice 94%. The protocol: (§1) Xenograft studies using NB4 and U937-AML cells were performed in NOG SCID mice under specific pathogen–free conditions. Cells (0.2 × 10^6 in 100 µL) were injected intravenously (retro orbital vein). Injected mice were randomly assigned to receive intra-peritoneal MC2884 (1 mg/kg) or vehicle for two weeks (8 doses) (10 mice per group). All animal procedures were performed in accordance with protocols approved by the local Committee for Animal Experimentation and with the permission of the Italian Health Ministry (n° 626/2015). At 16 days after injection, mice were sacrificed and the femurs and spleens were collected. Bone marrow (BM) and spleen cells were analyzed by FACS. To avoid non-specific stain, cells were mixed with mouse IgG and incubated with indicated antibodies for 30’. The mixture was depleted of erythrocytes and fixed (BD Pharmingen). […] Tumor growth was monitored by weekly bioluminescence imaging (BLI) acquisitions using an IVIS 3D Imaging System (Caliper Alameda, USA). To quantify bioluminescence, the integrated fluxes of photons (photons per s) within each area of interest were determined using the Living Images Software Package 3.2 (Caliper, Alameda, USA). […] Efficacy of drug treatment was assessed as inhibition of BLI emission comparing those MC2884 treated mice group and vehicle groups.

The next data set concerns NB4 cells. The data set is described as follows: NB4 leukemia xenograft, human CD45+ cells in bone marrow. It counts as in vivo, mice. The note with it: 1 mg/kg i.p., day 16. The procedure: as §1
Background: A xenograft is tissue or cells of one species grown in another, often human tumour cells in immunodeficient mice.

In a further data set the test system is HCT116 colon carcinoma. Briefly: HCT116 colon carcinoma xenograft, tumor volume. The note with it: 10 mg/Kg i.p., day 19. It counts as in vivo, mice. The procedure:
HCT116 cell line was grown in McCoy’s medium, supplemented with 10% inactivated FBS, 2 mM glutamine and standard concentration of antibiotics. 7- to 8-week-old male CD1 nude athymic mice were purchased from Charles River and under pathogen-free conditions in accordance with European Directives no. 2010/63 and with Italian D.L. 26/2014. Mice were injected subcutaneously into the right flank with 4 × 10^6 of HCT116 cells; tumor volume (mm^3) was evaluated three times a week by caliper using the formula Dmax x dmin^^2/2, where ‘d’ and ‘D’ are the shortest and the longest diameters, respectively. For all experiments, mice were randomly divided (n = 7) and intra-peritoneal injected by day five every day with: vehicle sesame oil/DMSO 6%; MC2884 10 mg/Kg in sesame oil/DMSO 6%. Mice were sacrificed after 20 days of drug treatment and tumors explanted for immunohistochemical analyses. For HCT116-DKO colon cancer, 6 × 10^6 cells were injected.

Data set [2] is described as follows: Mouse terminal IV PK study. It counts as in vivo. The note with it: iv 2 mg/kg, male CD1 mice, plasma. The protocol:
pHarmaCology male CD1 mice in a 5 mL/kg injection volume. Terminal blood samples (> 230 μL) were taken under CO2 from pharmacokinetic analysis (mice–iV, ip pK study) groups of 3 mice at each of 8 time-points post dose (0.083, 0.25, 0.5, 1, 2, 4, 8 and 24 h) and placed into heparinized
Compound was administered both intravenously and tubes. Samples were placed on ice for no longer than 30 intraperitoneally to mice. Blood samples were collected at min before centrifugation (10,000 rpm × 3 min). Plasma 8 time points over 24 hr and plasma analysed by LC-MS/ samples (>100 μL) were collected into fresh tubes and MS to determine the concentration of compound. frozen on dry ice. Number of plasma samples = 24.
The plasma time concentration profile was Consistent IV profiles were obtained, with little calculated with the main PK parameters (Co, AUClast, variability across the time-points (the average profile is t.,VD, and CL). shown in the second spreadsheet). An average half-life of […]
For ip dosing. After formulation assessment, […]
For iv dosing. Compound was dissolved at 0.4 mg/mL. […]

pIC50: −log10 of the molar value.

Sequence of KAT5 (Q92993 whole entry): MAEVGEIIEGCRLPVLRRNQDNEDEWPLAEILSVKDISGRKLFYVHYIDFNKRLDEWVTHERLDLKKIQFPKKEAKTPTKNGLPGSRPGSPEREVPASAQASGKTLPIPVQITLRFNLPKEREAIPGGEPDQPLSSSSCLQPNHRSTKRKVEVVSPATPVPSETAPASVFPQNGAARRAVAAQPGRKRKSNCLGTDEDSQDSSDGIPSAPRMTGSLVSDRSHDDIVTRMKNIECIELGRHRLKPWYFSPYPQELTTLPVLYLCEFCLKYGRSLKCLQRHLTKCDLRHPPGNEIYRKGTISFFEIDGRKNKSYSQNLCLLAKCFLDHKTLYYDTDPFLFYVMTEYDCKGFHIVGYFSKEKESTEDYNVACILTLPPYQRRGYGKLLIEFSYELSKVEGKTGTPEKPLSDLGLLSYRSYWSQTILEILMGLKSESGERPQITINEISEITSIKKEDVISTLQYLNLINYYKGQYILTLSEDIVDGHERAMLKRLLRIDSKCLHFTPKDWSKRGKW
Sequence of p300 (Q09472 whole entry): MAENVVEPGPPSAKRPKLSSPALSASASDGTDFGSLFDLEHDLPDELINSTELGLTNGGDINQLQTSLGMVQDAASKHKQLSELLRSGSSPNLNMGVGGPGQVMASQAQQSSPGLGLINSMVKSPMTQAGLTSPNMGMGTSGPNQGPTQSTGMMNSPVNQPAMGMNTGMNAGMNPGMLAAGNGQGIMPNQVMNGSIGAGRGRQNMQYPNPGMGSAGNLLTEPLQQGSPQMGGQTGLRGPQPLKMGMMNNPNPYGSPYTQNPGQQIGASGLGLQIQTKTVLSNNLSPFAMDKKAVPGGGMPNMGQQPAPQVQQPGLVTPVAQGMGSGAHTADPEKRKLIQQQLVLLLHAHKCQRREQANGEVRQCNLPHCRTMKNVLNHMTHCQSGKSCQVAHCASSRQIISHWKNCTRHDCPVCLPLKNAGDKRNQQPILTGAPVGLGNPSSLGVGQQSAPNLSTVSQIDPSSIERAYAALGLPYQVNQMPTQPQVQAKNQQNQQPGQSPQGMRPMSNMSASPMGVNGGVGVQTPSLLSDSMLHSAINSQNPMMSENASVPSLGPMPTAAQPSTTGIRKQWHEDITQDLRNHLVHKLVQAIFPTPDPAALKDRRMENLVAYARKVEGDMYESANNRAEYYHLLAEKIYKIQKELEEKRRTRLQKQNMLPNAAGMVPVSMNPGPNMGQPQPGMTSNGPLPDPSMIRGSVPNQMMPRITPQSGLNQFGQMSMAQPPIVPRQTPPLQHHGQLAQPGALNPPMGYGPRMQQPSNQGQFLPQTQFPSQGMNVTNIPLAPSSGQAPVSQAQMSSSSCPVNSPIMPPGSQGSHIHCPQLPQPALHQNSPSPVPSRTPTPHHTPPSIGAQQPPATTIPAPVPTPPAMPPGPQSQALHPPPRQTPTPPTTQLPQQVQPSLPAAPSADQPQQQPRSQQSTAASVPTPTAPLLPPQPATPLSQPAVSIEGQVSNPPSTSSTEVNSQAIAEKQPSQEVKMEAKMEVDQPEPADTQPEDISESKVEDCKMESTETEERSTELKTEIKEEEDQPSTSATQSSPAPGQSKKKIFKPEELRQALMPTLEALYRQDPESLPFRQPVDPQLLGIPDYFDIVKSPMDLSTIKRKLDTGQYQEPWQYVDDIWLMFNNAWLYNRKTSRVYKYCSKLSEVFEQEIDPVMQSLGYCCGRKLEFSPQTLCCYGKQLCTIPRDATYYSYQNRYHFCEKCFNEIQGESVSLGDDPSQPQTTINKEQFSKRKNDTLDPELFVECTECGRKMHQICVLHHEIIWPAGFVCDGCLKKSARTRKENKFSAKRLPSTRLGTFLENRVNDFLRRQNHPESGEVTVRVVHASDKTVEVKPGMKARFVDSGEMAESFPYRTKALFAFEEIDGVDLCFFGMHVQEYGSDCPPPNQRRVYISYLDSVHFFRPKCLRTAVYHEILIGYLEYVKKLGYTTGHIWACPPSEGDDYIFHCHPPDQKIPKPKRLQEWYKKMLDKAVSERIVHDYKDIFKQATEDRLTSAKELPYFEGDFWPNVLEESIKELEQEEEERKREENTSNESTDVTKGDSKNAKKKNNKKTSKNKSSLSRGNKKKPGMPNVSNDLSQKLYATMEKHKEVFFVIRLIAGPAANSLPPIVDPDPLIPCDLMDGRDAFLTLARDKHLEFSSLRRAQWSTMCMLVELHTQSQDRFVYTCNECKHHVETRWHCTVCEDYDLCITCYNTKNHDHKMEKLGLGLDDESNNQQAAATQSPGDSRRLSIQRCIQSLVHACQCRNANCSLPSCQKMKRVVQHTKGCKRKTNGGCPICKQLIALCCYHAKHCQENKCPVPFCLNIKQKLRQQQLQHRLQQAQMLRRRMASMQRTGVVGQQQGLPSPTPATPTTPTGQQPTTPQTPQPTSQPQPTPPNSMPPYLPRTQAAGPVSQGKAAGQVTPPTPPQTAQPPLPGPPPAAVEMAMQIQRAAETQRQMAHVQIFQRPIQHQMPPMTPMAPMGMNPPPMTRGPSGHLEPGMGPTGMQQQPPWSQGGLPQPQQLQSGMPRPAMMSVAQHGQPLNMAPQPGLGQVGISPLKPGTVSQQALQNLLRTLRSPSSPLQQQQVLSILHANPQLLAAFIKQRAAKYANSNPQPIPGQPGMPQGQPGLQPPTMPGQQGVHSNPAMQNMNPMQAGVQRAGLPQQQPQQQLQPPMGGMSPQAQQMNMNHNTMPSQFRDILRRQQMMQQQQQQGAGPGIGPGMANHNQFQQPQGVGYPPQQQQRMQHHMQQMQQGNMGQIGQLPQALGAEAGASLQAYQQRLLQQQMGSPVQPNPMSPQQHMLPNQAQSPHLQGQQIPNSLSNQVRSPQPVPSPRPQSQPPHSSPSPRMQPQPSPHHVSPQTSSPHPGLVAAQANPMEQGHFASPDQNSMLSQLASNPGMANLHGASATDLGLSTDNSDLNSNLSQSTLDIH
Sequence of HDAC1 (Q13547 whole entry): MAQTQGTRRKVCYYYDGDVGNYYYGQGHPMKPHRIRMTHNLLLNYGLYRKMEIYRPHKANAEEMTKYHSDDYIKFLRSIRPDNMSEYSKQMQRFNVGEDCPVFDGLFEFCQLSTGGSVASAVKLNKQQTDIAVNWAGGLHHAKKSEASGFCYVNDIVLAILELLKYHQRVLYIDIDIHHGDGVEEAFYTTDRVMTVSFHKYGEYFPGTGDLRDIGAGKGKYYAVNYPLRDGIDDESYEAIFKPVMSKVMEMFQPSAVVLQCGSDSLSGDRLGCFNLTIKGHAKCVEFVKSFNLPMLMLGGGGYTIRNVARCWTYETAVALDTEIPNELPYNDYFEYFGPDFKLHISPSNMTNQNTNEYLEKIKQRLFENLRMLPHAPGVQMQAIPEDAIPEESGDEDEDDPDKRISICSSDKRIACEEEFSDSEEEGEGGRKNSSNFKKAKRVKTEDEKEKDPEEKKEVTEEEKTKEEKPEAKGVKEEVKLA

As for `O=C1/C(=C/c2cccc(Br)c2)CN(Cc2ccccc2)C/C1=C\c1cccc(Br)c1` [MC2884], the pIC50 (in general, the negative decadic logarithm of the IC50, by convention in mol/L) at KAT5 is 6.08; on p300 it was 6.34. Also, the HDAC modulating action result at HDAC1 is “no activity”. Moreover, the “normalized weight, % of initial weight” value in data set [1] turned out to be 90%. Besides, in the data set on NB4 cells, the “human CD45+ cells in the bone marrow reduced to” value stood at 17%. In addition, the “tumor volume reduction versus untreated mice” value in the data set on HCT116 colon carcinoma was determined as 90%. Also, the half-life (as a rule, how long it takes for the measured level to halve) in data set [2] is 4.58 h.
